Data from patent US20160145257A1, “SUBSTITUTED XANTHINES AND METHODS OF USE THEREOF” (Hydra Biosciences, Inc., priority 2013, published 2016).
Where a name gives a salt, the structure may show the parent alone.

These molecules were tested against T1, hTRPC5 (Homo sapiens, UniProt Q9UL62) (assay: Whole-cell patch clamp, block of LaCl3-activated TRPC5 inward current). Conditions: TRPC5-expressing HEK293 TREx cells, 80 μM LaCl3, inward current, IC50 estimated from 5 μM and 500 nM, read-out: hTRPC5 Patch La3+ Inwd (nM) (All Batches).
T1 construct: expressed in transfected cells; host or cells: HEK293 TREx cells with inducible TRPC5 expression
T1 sequence (Q9UL62 1-973): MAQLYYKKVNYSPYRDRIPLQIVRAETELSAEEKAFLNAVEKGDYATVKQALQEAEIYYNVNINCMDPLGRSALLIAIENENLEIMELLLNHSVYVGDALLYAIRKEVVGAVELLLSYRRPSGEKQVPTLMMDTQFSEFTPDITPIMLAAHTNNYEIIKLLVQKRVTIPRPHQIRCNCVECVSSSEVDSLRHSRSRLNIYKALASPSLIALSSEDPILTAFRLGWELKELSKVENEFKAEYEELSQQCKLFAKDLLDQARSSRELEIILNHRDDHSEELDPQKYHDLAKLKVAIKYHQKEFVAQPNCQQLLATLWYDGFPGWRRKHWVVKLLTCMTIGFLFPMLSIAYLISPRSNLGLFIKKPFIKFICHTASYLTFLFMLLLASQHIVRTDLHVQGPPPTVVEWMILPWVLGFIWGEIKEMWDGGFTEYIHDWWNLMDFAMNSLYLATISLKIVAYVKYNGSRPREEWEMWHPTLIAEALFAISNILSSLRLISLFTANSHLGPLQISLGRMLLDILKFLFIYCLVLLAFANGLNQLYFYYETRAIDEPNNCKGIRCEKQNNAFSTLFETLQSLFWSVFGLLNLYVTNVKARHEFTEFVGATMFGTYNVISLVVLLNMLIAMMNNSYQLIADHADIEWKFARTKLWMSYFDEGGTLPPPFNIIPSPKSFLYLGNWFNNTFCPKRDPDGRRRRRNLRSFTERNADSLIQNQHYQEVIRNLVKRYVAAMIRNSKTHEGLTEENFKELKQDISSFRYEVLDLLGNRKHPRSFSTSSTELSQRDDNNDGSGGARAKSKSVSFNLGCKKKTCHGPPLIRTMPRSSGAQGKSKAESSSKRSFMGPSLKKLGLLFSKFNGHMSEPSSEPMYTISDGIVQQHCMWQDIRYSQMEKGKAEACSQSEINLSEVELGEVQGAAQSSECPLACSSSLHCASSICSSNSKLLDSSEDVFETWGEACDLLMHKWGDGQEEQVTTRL
Format: cell-based
Summary of the method: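 Whole-cell recordings in induced TRPC5-expressing HEK293 TREx cells, holding −40 mV, 400 ms ramps −120 to +100 mV every 5 s; current activated by 80 μM external LaCl3 and 1,400 nM pipette free Ca2+ (pH 7.2 internal, 7.4 external). Inward block at −80 mV, with LaCl3 present; IC50 estimated from testing at 5 μM and 500 nM.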

SMILES	IC50 [nM]
CCCOCCc1nc2c(c(=O)n(C)c(=O)n2C)n1Cc1ccc(C#N)cc1 [Compound 118]	2000 to 10000
CCC(CO)NC(=O)C(C)Cc1nc2c(c(=O)n(C)c(=O)n2C)n1Cc1cccc(Br)c1 (stereo not drawn) [Compound 165]	2000 to 10000
CCOCC(C)(C)Sc1nc2c(c(=O)n(C)c(=O)n2C)n1Cc1cccc(Br)c1 [Compound 56, 7-(3-bromobenzyl)-8-(1-ethoxy-2-methylpropan-2-ylthio)-1,3-dimethyl-1H-purine-2,6(3H,7H)-dione]	1000 to 2000
CCc1cnc(CSc2nc3c(c(=O)n(C)c(=O)n3C)n2Cc2cccc(Br)c2)o1 [Compound 23]	100 to 500
CCCOCCc1nc2c(c(=O)n(C)c(=O)n2C)n1Cc1ccc(C(C)=O)cc1 [Compound 158]	2000 to 10000
Cn1c(=O)c2c(nc(CCO)n2Cc2cccc(Br)c2)n(C)c1=O [Compound 39, 7-(3-Bromobenzyl)-8-(2-hydroxyethyl)-1,3-dimethyl-1H-purine-2,6(3H,7H)-dione]	2000 to 10000
CCc1coc(C(C)(C)Sc2nc3c(c(=O)n(C)c(=O)n3C)n2Cc2cccc(Br)c2)n1 [Compound 100, 7-(3-bromobenzyl)-8-(2-(4-ethyloxazol-2-yl)propan-2-ylthio)-1,3-dimethyl-1H-purine-2,6(3H,7H)-dione]	100 to 500
Cc1coc(-c2cccc(Cc3nc4c(c(=O)n(C)c(=O)n4C)n3Cc3cccc(Br)c3)c2)n1 [Compound 104]	2000 to 10000
CCc1coc(CSc2nc3c(c(=O)n(C)c(=O)n3C)n2Cc2cccc(C(C)=O)c2)n1 [Compound 180, 7-(3-acetylbenzyl)-8-((4-ethyloxazol-2-yl)methylthio)-1,3-dimethyl-1H-purine-2,6(3H,7H)-dione]	2000 to 10000
CCCOCCc1nc2c(c(=O)n(C)c(=O)n2C)n1Cc1cccc(Cl)c1 [Compound 107]	500 to 1000
CCOC(=O)C(C)(C)Cc1nc2c(c(=O)n(C)c(=O)n2C)n1Cc1cccc(Br)c1 [Compound 97, Ethyl 3-(7-(3-bromobenzyl)-1,3-dimethyl-2,6-dioxo-2,3,6,7-tetrahydro-1H-purin-8-yl)-2-2-dimethylpropanoate]	100 to 500
CCOC(=O)CCC(C)c1nc2c(c(=O)n(C)c(=O)n2C)n1Cc1cccc(Br)c1 (stereo not drawn) [Compound 135, Ethyl 4-(7-(3-bromobenzyl)-1,3-dimethyl-2,6-dioxo-2,3,6,7-tetrahydro-1H-purin-8-yl)pentanoate]	500 to 1000
Cn1c(=O)c2c(nc(SCc3ncc[nH]3)n2Cc2cccc(Br)c2)n(C)c1=O [Compound 8]	2000 to 10000
Cn1c(=O)c2c(nc(SCC#N)n2Cc2cccc(Br)c2)n(C)c1=O [Compound 7]	2000 to 10000
CCCOCCOc1nc2c(c(=O)n(C)c(=O)n2C)n1Cc1cccc(Br)c1 [Compound 99, 7-(3-bromobenzyl)-1,3-dimethyl-8-(2-propoxyethoxy)-1H-purine-2,6(3H,7H)-dione]	100 to 500
Cn1c(=O)c2c(nc(Cc3cccc(CO)c3)n2Cc2cccc(Br)c2)n(C)c1=O [Compound 124]	2000 to 10000
Cn1c(=O)c2c(nc(CCCl)n2Cc2cccc(Br)c2)n(C)c1=O [Compound 40, 7-(3-Bromobenzyl)-8-(2-chloroethyl)-1,3-dimethyl-1H-purine-2,6(3H,7H)-dione]	2000 to 10000
CCCOCCc1nc2c(c(=O)n(C)c(=O)n2C)n1Cc1cccc(C)c1 [Compound 90]	1000 to 2000
CC(O)CSc1nc2c(c(=O)n(C)c(=O)n2C)n1Cc1cccc(Br)c1 (stereo not drawn) [Compound 5]	2000 to 10000
CCOC(=O)CC(C)(C)c1nc2c(c(=O)n(C)c(=O)n2C)n1Cc1cccc(Br)c1 [Compound 96, Ethyl 3-(7-(3-bromobenzyl)-1,3-dimethyl-2,6-dioxo-2,3,6,7-tetrahydro-1H-purin-8-yl)-3-methylbutanoate]	500 to 1000
CCc1coc(CSc2nc3c(c(=O)n(C)c(=O)n3C)n2Cc2ccc(Br)cc2)n1 [Compound 157, 7-(4-bromobenzyl)-8-((4-ethyloxazol-2-yl)methylthio)-1,3-dimethyl-1H-purine-2,6(3H,7H)-dione]	< 100

More lines, now with the values ahead:

IC50 [nM]	SMILES
2000 to 10000	CN(C)Cc1cccc(Oc2nc3c(c(=O)n(C)c(=O)n3C)n2Cc2ccc(Cl)cc2)c1 [Compound 164, 7-(4-Chlorobenzyl)-8-(3-((dimethylaminol)methyl)phenoxy)-1,3-dimethyl-1H-purine-2,6(3H,7H)-dione hydrochloride]
100 to 500	COc1cccc(Cn2c(Oc3cccc(OC(F)(F)F)c3)nc3c2c(=O)n(C)c(=O)n3C)c1 [Compound 160, 7-(3-methoxybenzyl)-1,3-dimethyl-8-(3-(trifluoromethoxy)phenoxy)-1H-purine-2,6(3H,7H)-dione]
2000 to 10000	Cn1c(=O)c2c(nc(Oc3cccc(C(F)(F)F)c3)n2S(=O)(=O)c2ccc(Cl)cc2)n(C)c1=O [Compound 190]
2000 to 10000	Cn1c(=O)c2c(nc(CCNCc3ccccc3)n2Cc2cccc(Br)c2)n(C)c1=O [Compound 47, 8-(2-(Benzylamino)ethyl)-7-(3-bromobenzyl)-1,3-dimethyl-1H-purine-2,6(3H,7H)-dione]
2000 to 10000	CN(C)C(=O)c1cccc(Oc2nc3c(c(=O)n(C)c(=O)n3C)n2Cc2cccc(Br)c2)c1 [Compound 127]
2000 to 10000	Cn1c(=O)c2c(nc(Nc3cccc(C(F)(F)F)c3)n2Cc2cccc(Br)c2)n(C)c1=O [Compound 172]
2000 to 10000	CN(C)Cc1cccc(Oc2nc3c(c(=O)n(C)c(=O)n3C)n2Cc2cccc(Cl)c2)c1 [Compound 153, 7-(3-Chlorobenzyl)-8-(3-((dimethylamino)methyl)phenoxy)-1,3-dimethyl-1H-purine-2,6(3H,7H)-dione hydrochloride]
2000 to 10000	Cc1coc(-c2cccc(Oc3nc4c(c(=O)n(C)c(=O)n4C)n3Cc3cccc(Br)c3)c2)n1 [Compound 103, 7-(3-bromobenzyl)-1,3-dimethyl-8-(3-(4-methyloxazol-2-yl)phenoxy)-1H-purine-2,6(3H,7H)-dione]
100 to 500	Cn1c(=O)c2c(nc(SCc3ccccc3F)n2Cc2ccc(Cl)c(Cl)c2)n(C)c1=O [Compound 58]
< 100	Cc1cc(Cn2c(Oc3cccc(OC(F)(F)F)c3)nc3c2c(=O)n(C)c(=O)n3C)ccc1Cl [Compound 206, 7-(4-chloro-3-methylbenzyl)-1,3-dimethyl-8-(3-(trifluoromethoxy)phenoxy)-1H-purine-2,6(3H,7H)-dione]
2000 to 10000	Cn1c(=O)c2c(nc(COCc3ccccc3)n2Cc2cccc(Br)c2)n(C)c1=O [Compound 45]
500 to 1000	Cn1c(=O)c2c(nc(CCc3ccccc3)n2Cc2cccc(Br)c2)n(C)c1=O [Compound 33, 7-(3-bromobenzyl)-1,3-dimethyl-8-phenethyl-1H-purine-2,6(3H,7H)-dione]
100 to 500	Cn1c(=O)c2c(nc(Oc3cccc(OC(F)(F)F)c3)n2Cc2cccc(OC(F)(F)F)c2)n(C)c1=O [Compound 166, 1,3-dimethyl-7-(3-(trifluoromethoxy)benzyl)-8-(3-(trifluoromethoxy)phenoxy)-1H-purine-2,6(3H,7H)-dione]
2000 to 10000	Cn1c(=O)c2c(nc(Oc3cccc(C(F)(F)F)c3)n2Cc2ccc3ccccc3c2)n(C)c1=O [Compound 185, 1,3-dimethyl-7-(naphthalen-2-ylmethyl)-8-(3-(trifluoromethyl)phenoxy)-1H-purine-2,6(3H,7H)-dione]
500 to 1000	CCCOCCc1nc2c(c(=O)n(C)c(=O)n2C)n1Cc1ccc(-c2ccccc2)cc1 [Compound 129, 7-(biphenyl-4-ylmethyl)-1,3-dimethyl-8-(2-propoxyethyl)-1H-purine-2,6(3H,7H)-dione]
